According to patent publication US11633400B2:

Legend:
[1] = cited from earlier work; for aqueous solubility: at room temperature, known values
[2] = Hygroscopicity by dynamic water vapor sorption analysis (DVS)
Experimental: DVS measurements were conducted as follows: The sample was placed on an aluminum holder on top of a microbalance and allowed to equilibrate at 50% RH before starting the pre-defined humidity program:
(1) two hours kept at 50% constant relative humidity (RH) then
(2) raised RH to 95% at a rate of 5% per hour
(3) maintained RH at 95% for five hours
(4) reduced to 0% RH at a rate of 5% per hour
(5) maintained RH at 0% for five hours
(6) raised RH to 95% at a rate of 5% per hour
(7) maintained RH at 95% for five hours
(8) reduced to 0% RH at a rate of 5% per hour
(9) maintained RH at 0% for five hours
(10) raised to 50% RH at a rate of 5% per hour
(11) maintained RH at 50% for about one hour
(§1) This sample was examined by dynamic water vapor sorption analysis (DVS) within the relative humidity range from 0 to 95% r.h. DVS measurements were conducted as described above.

Water content by TG-FTIR = conditions: sample according to Example 1; relative humidity of about 35%
Experimental: Thermogravimetric measurements were carried out with a Netzsch Thermo-Microbalance TG 209 coupled to a Bruker FTIR Spectrometer Vector 22 (sample pans with a pinhole, N2 atmosphere, heating rate 10 K/min).
This value was determined by TG-FTIR at a relative humidity of about 35%. This sample was examined by dynamic water vapor sorption analysis (DVS) within the relative humidity range from 0 to 95% r.h. DVS measurements were conducted as described above.
as §1

## CN1c2c([nH]c(N)nc2=O)NC[C@@H]1CNc1ccc(C(=O)N[C@@H](CCC(=O)O)C(=O)O)cc1
[1]; water
  solubility in water (in words): poorly soluble

## CN1c2c(nc(N)[nH]c2=O)NC[C@@H]1CNc1ccc(C(=O)N[C@@H](CCC(=O)O)C(=O)O)cc1.OCCN1CCOCC1
[2]; DVS, range from 20% to 80% relative humidity
  change of water content: about 2%
[2]; under changing relative humidity
  water adsorption compared with the crystalline polymorphic forms of the calcium salt: significantly lower
Water content by TG-FTIR
  water content (TG-FTIR): about 8.9 % w/w

## CN1c2c([nH]c(N)nc2=O)NC[C@@H]1CNc1ccc(C(=O)N[C@@H](CCC(=O)[O-])C(=O)[O-])cc1.[Ca+2] [Form I]
[1]
  aqueous solubility: about 10 mg/ml

## CN1c2c([nH]c(N)nc2=O)NC[C@@H]1CNc1ccc(C(=O)N[C@@H](CCC(=O)[O-])C(=O)[O-])cc1.[Ca+2] [calcium salt (Form III)]
[1]
  aqueous solubility: about 2.5 mg/ml
